Like-named read-outs stand apart in the source and are kept apart here.
Assays:
[1] = test system: human fibroblast (HOFA) cell line; conditions: over seven days; ref (9); cited from earlier work
thymus = conditions: old mice; refs (5;11); cited from earlier work
immune system = test: Stimulation of the immune system in mice; assay type: in vivo; conditions: 11 mg/kg body weight
Protocol: The DTS-albumin formulation of the present invention can also be administered to a patient with a formulation dosage that is predetermined based upon data specific to that patient. For example, weight, metabolic factors, genetic factors, etc. can contribute to varying predetermined dosage amounts that are used to prescribe the specific predetermined dosage to the patient. Preferably the formulation dosage is between about 0.023 mg/kg and about 2.3 mg/kg body weight. […] The DTS-BSA complex was active at 0.5 ng/mL in vitro dose, a ratio of about 480. Thus, 11 divided by 480 is about 0.023 mg/Kg body weight (minimum). Similarly, the maximum is about 2.3 mg/Kg body weight. If we assumed that the maximum weigh of a human to be treated with the ATS-albumin complex Is 70 Kg, then the upper limit would be […]=1.61 mg/70 kg body weight.

[2] = target: mitogen-activated protein kinases phosphatase 1 (MKP-1) (Homo sapiens, UniProt P28562); conditions: in vitro; ref (12); cited from earlier work
Sequence of mitogen-activated protein kinases phosphatase 1 (MKP-1) (P28562 whole entry, species assumed): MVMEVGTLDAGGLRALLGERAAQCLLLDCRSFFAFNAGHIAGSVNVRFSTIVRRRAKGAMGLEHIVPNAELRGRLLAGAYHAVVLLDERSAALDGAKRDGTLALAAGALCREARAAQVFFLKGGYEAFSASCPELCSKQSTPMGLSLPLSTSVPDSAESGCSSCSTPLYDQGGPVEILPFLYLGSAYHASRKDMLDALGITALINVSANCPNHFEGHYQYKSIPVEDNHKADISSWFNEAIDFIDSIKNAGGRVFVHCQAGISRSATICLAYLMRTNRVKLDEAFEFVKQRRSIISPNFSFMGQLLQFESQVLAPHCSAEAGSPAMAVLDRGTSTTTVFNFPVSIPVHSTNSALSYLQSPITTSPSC

Th-1 and Th-2 cytokines = conditions: Human Mixed Lymphocytes Responses, CD3 dependent activation, cited from earlier work
A549 = conditions: ref (9); cited from earlier work
ovarian OVCAR4 = conditions: ref (10); cited from earlier work
adenocarcinoma HeLa = conditions: ref (10); cited from earlier work
[3] = test system: non-small cell lung cancer H460; conditions: ref (10); cited from earlier work
mice = test: Toxicity to mice; assay type: in vivo; conditions: up to 30 mg/kg body weight
Protocol: In addition, concentration of up to 30 mg/kg body weigh was not toxic to mice. DTS seems to activate the bone marrow at 10 mg/kg body weight since granulocytes differential count was increased by 50% (5).

ovarian A2780 = conditions: ref (10); cited from earlier work
[4] = target: T1, Bovine Serum Albumin (BSA) (Bos taurus, UniProt P02769); conditions: 500 ng/mL (0.5 μg/mL), pH 6.0; ref (11); cited from earlier work
T1 sequence (P02769 25-607): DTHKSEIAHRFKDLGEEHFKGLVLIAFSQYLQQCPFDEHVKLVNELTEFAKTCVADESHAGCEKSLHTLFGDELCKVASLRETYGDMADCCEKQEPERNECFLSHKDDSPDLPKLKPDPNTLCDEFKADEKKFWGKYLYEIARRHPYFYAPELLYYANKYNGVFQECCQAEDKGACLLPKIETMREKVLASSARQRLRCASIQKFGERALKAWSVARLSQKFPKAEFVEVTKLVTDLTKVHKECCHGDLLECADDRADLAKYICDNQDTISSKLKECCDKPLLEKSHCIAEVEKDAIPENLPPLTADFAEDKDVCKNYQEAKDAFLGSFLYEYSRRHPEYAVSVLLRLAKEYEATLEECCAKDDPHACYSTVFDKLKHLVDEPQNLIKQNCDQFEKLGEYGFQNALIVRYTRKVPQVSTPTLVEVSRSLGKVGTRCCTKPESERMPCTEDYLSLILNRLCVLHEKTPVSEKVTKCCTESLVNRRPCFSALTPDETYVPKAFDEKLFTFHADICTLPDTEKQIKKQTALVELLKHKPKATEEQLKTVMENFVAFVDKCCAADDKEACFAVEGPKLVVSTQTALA

IPC-melanoma = conditions: ref (9), cited from earlier work
[5] = test system: human SH-SY5Y neuroblatsoma cells; test: Anti-proliferation/cytotoxic activity of DTS and DTS-BSA complex on SH-SY5Y cells; assay type: cell-based; conditions: for Percentage anti-proliferation activity: SH-SY5Y
Source text: 3. […] 4. […] See Williams et al., (2004) West Indian Medical Journal 53 (4) pp. 208-219 for the preparation of cell culture medium and assessment of anti-proliferation/cytotoxic activity on the human SH-SY5Y neuroblatsoma cells (12); the previous reference is hereby incorporated by reference in its entirety. A summary of the results from an experiment involving the above synthesis method were as follows: […]

[6] = target: T1, Bovine Serum Albumin (BSA); conditions: personal communication; cited from earlier work
bone marrow = conditions: cited from earlier work
[7] = Spectrophotometric absorbance binding experiments on pure tyrosine and phenylalanine; conditions: room temperature
Source text: Here is an outline of these experiments:
1. A plot of Absorbance (nm) with time (mins) of the interaction with tyrosine and DTS gives a normal distribution (Gaussian) with the highest optimum at room temperature.
2. As temperature is increased there is a lowering of the optimum on the graph until a straight line is created.
4. Phenylalanine, which is an aromatic amino acid, gives a straight line at room temperature with DTS, while DTS and tyrosine give a Gaussian distribution; the height of the curve is a function of the ratio of the DTS used.

Jurkat leukaemia = conditions: ref (10); cited from earlier work
fibrosarcoma HT1080 = conditions: ref (10); cited from earlier work
[8] = test system: MAPKinase (erk 1 and erk 2); conditions: induced by basic fibroblast growth factor (bFGF); 1.0 μM; refs (7;11); cited from earlier work
SH-SY5Y neuroblastoma = conditions: cited from earlier work
breast M231 = conditions: ref (10); cited from earlier work
[9] = test system: A637 primary bladder carcinoma; conditions: ref (9); cited from earlier work
cadherin-5 = conditions: human SH-SY5YTRK-A neuroblastoma cells pre-treated with NgF; ref (11); cited from earlier work
MCF-7 mammary carcinoma = conditions: cited from earlier work
Peyer's patches = test: Effect on Peyer's patches; conditions: in vivo
Source text: The manipulation of various homing factors e.g. L-selectin-mAb LM1-3 and addressin-mAdCAM-1 and integrins such as alpha4beta7 as therapeutic targets on Peyer's patches dendritic cells is a rapidly expanding field in drug development against intestinal bowel diseases (IBD) e.g. colitis, colorectal carcinoma and Chrohn's disease (20;21). DTS caused an enlargement in Peyer's patches possible by an activation of cell proliferation. Thus, based on this finding we hereby proposed that the effect of DTS on the Peyer's patches should be elucidated with the hope of developing drugs against IBD.

[10] = test system: Erythrocytes (red blood cells, RBCs); conditions: RBCs separated from WBCs, in buffer, concentrations higher than those effective on cancer cells; refs (11;32); cited from earlier work
Starfish embryos = conditions: ref (11); cited from earlier work
[11] = test system: human TE-671 sarcoma cell line; conditions: 0.56 μM, ref (9); cited from earlier work

For `c1ccc(CSSSCc2ccccc2)cc1` [DTS, dibenzyl trisulphide], the “toxicity to human fibroblast (HOFA) cell line” value [1] is given as “not to be toxic”, the thymic weight (thymus) is given as “increase” and the “effect on the immune system” value (immune system) is given as “stimulated the immune system”. The “binding of MKP-1 to its substrate OMFP” value [2] was “enhance”, the “Th-2 cytokines such as IL-4” value (Th-1 and Th-2 cytokines) was “up-regulated” and the Th-1 cytokines (Th-1 and Th-2 cytokines; ref (11)) was “down regulates”. The IC50 (A549) was 15.8 µM, the IC50 (ovarian OVCAR4) was 1400 nM and the IC50 (adenocarcinoma HeLa) was 2500 nM. The IC50 [3] was 5.1 µM, the toxicity to mice (mice) was “not toxic” and the IC50 (ovarian A2780) was 400 nM. For the same compound, the “protection of BSA from denaturation” value [4] was 50.83%, the “nuclear morphology (mitotic catastrophe)” value (IPC-melanoma; IPC-melanoma cells exposed to 1.0 μM) was “nuclear fragmentation” and the IC50 (IPC-melanoma; IPC-melanoma) was 2900 nM. The “effective in vitro dose” value ([5]; DTS alone, in vitro, cell system not stated) was 240 ng/mL, the Percentage anti-proliferation activity ([5]; DTS at 39 ng/mL (No BSA)) was 1.68% and the Percentage anti-proliferation activity ([5]; DTS at 78 ng/mL (No BSA)) was 38.22%. The Percentage anti-proliferation activity ([5]; DTS at 1.25 μg/mL (No BSA)) was 93.00%, the “binding of glucose to BSA” value [6] was “inhibit” and the “increase of granulocytes differential count” value (bone marrow; 10 mg/kg body weight, ref (5)) was 50%. The “production of granulocytes and erythrocytes” value (bone marrow; refs (5;11)) was “increased”, the “binding to aromatic amino acids (absorbance)” value [7] was “binds only to tyrosine” and the IC50 (Jurkat leukaemia) was 350 nM. The IC50 (fibrosarcoma HT1080) was 1900 nM, the “hyperphosphorylation of MAPKinase (erk 1 and erk 2) signalling” value [8] was 30% and the “enhancement of cytotoxic action by complexing DTS to Bovine Serum Albumin” value (SH-SY5Y neuroblastoma; SH-SY5Y in vitro, refs (11;12)) was 70 fold. The IC50 (SH-SY5Y neuroblastoma; SH-SY5Y neuroblastoma, ref (9)) was 430 nM, the IC50 (breast M231) was 2400 nM and the IC50 [9] was 18.8 µM. The “expression of cadherin-5” value (cadherin-5) was “up-regulate”, the IC50 (MCF-7 mammary carcinoma; ref (9)) was 2.24 µM and the IC50 (MCF-7 mammary carcinoma; ref (10)) was 6.6 µM. The “Peyer's patches size” value (Peyer's patches) was “enlargement”, the effect on erythrocytes [10] was “cell-cell attraction with morphological changes without lysis” and the “effect on protein biosynthesis” value (Starfish embryos) was “did not have any effect”. The anti-proliferation/cytotoxic activity [11] was 44.67%.

— patent US9662303B2, “Composition and method for treating cancer” (PG-Pharma, LLC, priority 2006, dated 2017)
